Among the data in PMC12732972, “Bifunctional BODIPY-Clioquinol Copper Chelator with Multiple Anti-AD Properties” (International Journal of Molecular Sciences, 2025) are Kd values, retold here.

The target of this assay is T1, beta amyloid (Aβ42) (Homo sapiens, UniProt P05067).
T1 construct: gene APP; synthetic peptide of 42 amino acids β-amyloid Aβ42 (monomers)
The assay is described as follows: ITC with Aβ[…] monomers (supported by fluorescence saturation binding with monomers and fibrils).

The structures appear in SMILES notation.

T1 sequence (P05067 672-713 limits assumed): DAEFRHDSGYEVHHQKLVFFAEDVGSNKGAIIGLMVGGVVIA

Regarding `CC1=C(c2nc3ccccc3s2)C(C)=[N+]2C1=C(c1ccc(OCC(=O)NCCCOc3c(I)cc(Cl)c4cccnc34)cc1)c1c(C)cc(C)n1[B-]2(F)F` [BDP-CLQ, 2-(4-(2-(benzo[d]thiazol-2-yl)-5,5-difluoro-1,3,7,9-tetramethyl-5H-5λ^4,6λ^4-dipyrrolo [1,2-c:2′,1′-f][1,3,2]diazaborinin-10-yl)phenoxy)-N-(3-((5-chloro-7-iodoquinolin-8-yl)-oxy)propyl)acetamide], the Kd amounted to 4.08 ± 0.2 µM.
